This note sets out measurements from patent US8609703B2, “Modulators of ATP-binding cassette transporters” (Vertex Pharmaceuticals Incorporated, priority 2005, dated 2013).

The target of this experiment is T1, ΔF508-CFTR (Homo sapiens, UniProt P13569, DEL508-508).
T1 construct: expressed in transfected cells
As to the kind of experiment: EC50 and relative efficacy as modulators of ΔF508-CFTR (membrane potential optical assay). The note with it: for % Activity: relative efficacy. The format is cell-based. The source says: I) Membrane Potential Optical Methods for Assaying ΔF508-CFTR Modulation Properties of Compounds
The optical membrane potential assay utilized voltage-sensitive FRET sensors described by Gonzalez and Tsien (See., Gonzalez, J. E. and R. Y. Tsien (1995) “Voltage sensing by fluorescence resonance energy transfer in single cells” Biophys J 69(4): 1272-80, and Gonzalez, J. E. and R. Y. Tsien (1997) “Improved indicators of cell membrane potential that use fluorescence resonance energy transfer” Chem Biol 4(4): 269-77) in combination with instrumentation for measuring fluorescence changes such as the Voltage/Ion Probe Reader (VIPR) (See Gonzalez, J. E., K. Oades, et al. (1999) “Cell-based assays and instrumentation for screening ion-channel targets” Drug Discov Today 4(9): 431-439).
These voltage sensitive assays are based on the change in fluorescence resonant energy transfer (FRET) between the membrane-soluble, voltage-sensitive dye, DiSBAC2(3), and a fluorescent phospholipid, CC2-DMPE, which is attached to the outer leaflet of the plasma membrane and acts as a FRET donor. Changes in membrane potential (Vm) cause the negatively charged DiSBAC2(3) to redistribute across the plasma membrane and the amount of energy transfer from CC2-DMPE changes accordingly. The changes in fluorescence emission were monitored using VIPR which is an integrated liquid handler and fluorescent detector designed to conduct cell-based screens in 96- or 384-well microtiter plates.
To identify small molecules that correct the trafficking defect associated with ΔF508-CFTR; a single-addition HTS assay format was developed. The cells were incubated in serum-free medium for 16 hrs at 37° C. in the presence or absence (negative control) of test compound. As a positive control, cells plated in 384-well plates were incubated for 16 hrs at 27° C. to “temperature-correct” ΔF508-CFTR. The cells were subsequently rinsed 3× with Krebs Ringers solution and loaded with the voltage-sensitive dyes. To activate ΔF508-CFTR, 10 μM forskolin and the CFTR potentiator, genistein (20 μM), were added along with Cl^−-free medium to each well. The addition of Cl^−-free medium promoted Cl^− efflux in response to LF508-CFTR activation and the resulting membrane depolarization was optically monitored using the FRET-based voltage-sensor dyes.
To identify potentiators of ΔF508-CFTR, a double-addition HTS assay format was developed. During the first addition, a Cl^−-free medium with or without test compound was added to each well. After 22 sec, a second addition of Cl^−-free medium containing 2-10 μM forskolin was added to activate ΔF508-CFTR. The extracellular Cl^− concentration following both additions was 28 mM, which promoted Cl^− efflux in response to ΔF508-CFTR activation and the resulting membrane depolarization was optically monitored using the FRET-based voltage-sensor dyes.
NIH3T3 mouse fibroblasts stably expressing ΔF508-CFTR are used for optical measurements of membrane potential. The cells are maintained at 37° C. in 5% CO2 and 90% humidity in Dulbecco's modified Eagle's medium supplemented with 2 mM glutamine, 10% fetal bovine serum, 1×NEAA, (3-ME, 1× pen/strep, and 25 mM HEPES in 175 cm^2 culture flasks. For all optical assays, the cells were seeded at 30,000/well in 384-well matrigel-coated plates and cultured for 2 hrs at 37° C. before culturing at 27° C. for 24 hrs. for the potentiator assay. For the correction assays, the cells are cultured at 27° C. or 37° C. with and without compounds for 16-24 hoursB) Electrophysiological Assays for assaying ΔF508-CFTR modulation properties of compounds
Compounds of the invention are useful as modulators of ATP binding cassette transporters. Table 3 below illustrates the EC50 and relative efficacy of certain embodiments in Table 1.

T1 sequence (P13569 with tags, fused parts or gaps DEL508-508): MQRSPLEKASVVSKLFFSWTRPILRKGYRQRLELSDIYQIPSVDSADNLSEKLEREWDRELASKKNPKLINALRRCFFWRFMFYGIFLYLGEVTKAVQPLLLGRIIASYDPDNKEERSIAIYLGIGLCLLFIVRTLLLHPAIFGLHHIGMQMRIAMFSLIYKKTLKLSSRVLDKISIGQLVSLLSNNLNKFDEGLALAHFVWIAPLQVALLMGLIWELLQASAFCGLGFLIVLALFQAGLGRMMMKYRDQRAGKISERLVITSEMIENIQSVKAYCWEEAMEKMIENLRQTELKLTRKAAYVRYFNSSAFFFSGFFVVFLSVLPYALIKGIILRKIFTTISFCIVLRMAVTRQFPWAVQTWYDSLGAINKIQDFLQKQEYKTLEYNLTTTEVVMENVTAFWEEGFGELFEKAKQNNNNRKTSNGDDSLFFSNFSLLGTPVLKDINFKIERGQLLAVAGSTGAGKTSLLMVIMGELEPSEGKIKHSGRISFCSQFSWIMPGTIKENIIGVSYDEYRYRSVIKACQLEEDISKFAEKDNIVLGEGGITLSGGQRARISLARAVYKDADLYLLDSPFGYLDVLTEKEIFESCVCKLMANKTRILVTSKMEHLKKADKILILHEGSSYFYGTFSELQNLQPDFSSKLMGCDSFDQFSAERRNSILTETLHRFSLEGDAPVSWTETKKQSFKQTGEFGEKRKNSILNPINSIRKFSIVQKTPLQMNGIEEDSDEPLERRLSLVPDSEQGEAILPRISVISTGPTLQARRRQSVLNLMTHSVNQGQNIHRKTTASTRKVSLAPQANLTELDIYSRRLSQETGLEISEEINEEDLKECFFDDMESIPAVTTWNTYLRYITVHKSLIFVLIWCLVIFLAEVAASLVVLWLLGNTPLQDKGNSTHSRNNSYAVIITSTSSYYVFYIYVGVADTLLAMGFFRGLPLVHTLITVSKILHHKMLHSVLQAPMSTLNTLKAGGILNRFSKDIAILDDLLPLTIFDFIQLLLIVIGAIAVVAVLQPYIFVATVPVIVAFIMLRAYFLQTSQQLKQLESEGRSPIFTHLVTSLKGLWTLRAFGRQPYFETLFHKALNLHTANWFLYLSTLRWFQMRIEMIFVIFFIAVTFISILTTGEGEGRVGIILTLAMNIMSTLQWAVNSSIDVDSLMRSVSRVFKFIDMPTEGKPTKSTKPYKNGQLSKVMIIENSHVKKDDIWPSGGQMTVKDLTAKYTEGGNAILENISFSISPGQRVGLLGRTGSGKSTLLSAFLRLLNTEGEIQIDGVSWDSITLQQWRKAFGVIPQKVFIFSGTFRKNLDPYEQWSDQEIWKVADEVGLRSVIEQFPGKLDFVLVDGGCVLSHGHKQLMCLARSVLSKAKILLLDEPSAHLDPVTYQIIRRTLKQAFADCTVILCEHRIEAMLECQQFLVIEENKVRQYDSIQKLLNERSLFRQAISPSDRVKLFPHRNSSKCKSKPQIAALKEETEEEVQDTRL

With `O=C(Nc1ccc(F)cc1)C(=O)c1c[nH]c2ccc(Br)cc12` [Cmpd 1], the EC50 is below 1 µM and the “% Activity” value is listed as “+ (“+” means <25%)”.

Take `O=C(Nc1ccc(N2CCN(C(c3ccccc3)c3ccccc3)CC2)cc1)C(=O)c1c[nH]c2ccccc12` [Cmpd 2]: the EC50 fell in the range of 1 to 5 µM and the “% Activity” value was “+ (“+” means <25%)”.

`CCc1ccccc1NC(=O)C(=O)c1c[nH]c2ccccc12` [Cmpd 3, N-(2-Ethyl-phenyl)-2-(1H-indol-3-yl)-2-oxo-acetamide]: the EC50 was below 1 µM and the “% Activity” value is reported as “++ (“++” means between 25% to 100%)”.

With `O=C(Nc1ccc2cc[nH]c2c1)C(=O)c1c[nH]c2ccccc12` [Cmpd 4], the EC50 is below 1 µM and the “% Activity” value is given as “++ (“++” means between 25% to 100%)”.

On to `CCCc1ccccc1NC(=O)C(=O)c1c[nH]c2ccccc12` [Cmpd 5], for which the EC50 was below 1 µM and the “% Activity” value is “++ (“++” means between 25% to 100%)”.

In the case of `CC(C)c1ccccc1NC(=O)C(=O)c1c[nH]c2ccccc12` [Cmpd 6], the EC50 was below 1 µM and the “% Activity” value is recorded as “++ (“++” means between 25% to 100%)”.

For the compound `CC(C)(C)c1ccc(NC(=O)C(=O)c2c[nH]c3ccccc23)cc1` [Cmpd 7], the EC50 is below 1 µM and the “% Activity” value is given as “++ (“++” means between 25% to 100%)”.

Regarding `O=C(Nc1ccccc1-c1ccccc1)C(=O)c1c[nH]c2ccccc12` [Cmpd 8], the EC50 is below 1 µM and the “% Activity” value is “++ (“++” means between 25% to 100%)”.

For `O=C(Nc1ccccc1)C(=O)c1c[nH]c2ccccc12` [Cmpd 9], the EC50 was in the range of 1 to 5 µM and the “% Activity” value was “++ (“++” means between 25% to 100%)”.

Consider `O=C(Nc1cccc(C(F)(F)F)n1)C(=O)c1c[nH]c2ccccc12` [Cmpd 10], for which the EC50 was below 1 µM and the “% Activity” value was “++ (“++” means between 25% to 100%)”.

For the compound `Cc1ccccc1Oc1ccccc1NC(=O)C(=O)c1c[nH]c2ccccc12` [Cmpd 11], the EC50 is below 1 µM and the “% Activity” value was “++ (“++” means between 25% to 100%)”.

For `C=C(C)c1ccccc1NC(=O)C(=O)c1c[nH]c2ccccc12` [Cmpd 12], the EC50 is below 1 µM and the “% Activity” value is recorded as “++ (“++” means between 25% to 100%)”.

As to `CCCCc1ccccc1NC(=O)C(=O)c1c[nH]c2ccccc12` [Cmpd 13], the EC50 was below 1 µM and the “% Activity” value is “++ (“++” means between 25% to 100%)”.

`O=C(Nc1ccccc1Oc1ccc(Cl)cc1Cl)C(=O)c1c[nH]c2ccccc12` [Cmpd 14]: the EC50 is below 1 µM and the “% Activity” value was “++ (“++” means between 25% to 100%)”.

Consider `O=C(Nc1ccccc1CN1CCCCC1)C(=O)c1c[nH]c2ccccc12` [Cmpd 15], for which the EC50 is below 1 µM and the “% Activity” value is “++ (“++” means between 25% to 100%)”.

In the case of `Cn1cc(C(=O)C(=O)Nc2ccccc2)c2ccccc21` [Cmpd 16], the EC50 was above 5 µM and the “% Activity” value is given as “++ (“++” means between 25% to 100%)”.

Turning to `Cn1cc(C(=O)C(=O)Nc2ccccc2-c2ccccc2)c2ccccc21` [Cmpd 17], the EC50 was above 5 µM and the “% Activity” value is given as “+ (“+” means <25%)”.

Turning to `O=C(Nc1ccccc1CN1CCCC1)C(=O)c1c[nH]c2ccccc12` [Cmpd 18], the EC50 lay in the range of 1 to 5 µM and the “% Activity” value was “++ (“++” means between 25% to 100%)”.

As to `Nc1cc(NC(=O)C(=O)c2c[nH]c3ccccc23)cc(C(F)(F)F)c1` [Cmpd 19], the EC50 was 1 to 5 µM and the “% Activity” value is “++ (“++” means between 25% to 100%)”.

Turning to `CN1Cc2c(NC(=O)C(=O)c3c[nH]c4ccccc34)cccc2C(c2ccccc2)C1` (stereo not shown) [Cmpd 20], the EC50 was below 1 µM and the “% Activity” value is reported as “++ (“++” means between 25% to 100%)”.

As to `Cc1ccc(C)n1-c1ccccc1NC(=O)C(=O)c1c[nH]c2ccccc12` [Cmpd 21], the EC50 is 1 to 5 µM and the “% Activity” value is on record as “++ (“++” means between 25% to 100%)”.

Turning to `O=C(Nc1ccccc1OC(F)F)C(=O)c1c[nH]c2ccccc12` [Cmpd 22], the EC50 lay in the range of 1 to 5 µM and the “% Activity” value was “++ (“++” means between 25% to 100%)”.

With `O=C(Nc1ccccc1F)C(=O)c1c[nH]c2ccccc12` [Cmpd 23], the EC50 is below 1 µM and the “% Activity” value was “++ (“++” means between 25% to 100%)”.

Consider `CC(C)(C)c1cc(C(C)(C)C)c(NC(=O)C(=O)c2c[nH]c3ccccc23)cc1O` [Cmpd 24], for which the EC50 was below 1 µM and the “% Activity” value is given as “++ (“++” means between 25% to 100%)”.

For `CC(C)(C)c1cc2cc[nH]c2cc1NC(=O)C(=O)c1c[nH]c2ccccc12` [Cmpd 25], the EC50 was below 1 µM and the “% Activity” value is listed as “++ (“++” means between 25% to 100%)”.

Consider `CC(C)(C)c1ccccc1NC(=O)C(=O)c1c[nH]c2ccccc12` [Cmpd 26], for which the EC50 was below 1 µM and the “% Activity” value is on record as “++ (“++” means between 25% to 100%)”.

As a reminder, the EC50 is the midpoint of the concentration-response curve.
